Patent publication US20210085244A1, “WRIST RIGIDITY ASSESSMENT DEVICE AND METHOD FOR IDENTIFYING A CLINICALLY EFFECTIVE DOSE” (INESC TEC- INSTITUTO DE ENGENHARIA DE SISTEMAS …, priority 2015, published 2021)

Test system: Parkinson's Disease (PD) patients
Assay: Levodopa level medication test: UPDRS rigidity score and wrist rigidity index by wearable angular velocity sensor
Assay type: in vivo
Settings: for UPDRS: motor classification for Rigidity & Rest Tremor (0 to 4); for Rigidity label (Avg): average, higher values = lower rigidity; for Rigidity label: higher index values correspond to lower perceived wrist rigidity
Source text: FIG. 6: angular velocity data of a wrist rigidity assessment recorded using a device according to an embodiment of the present disclosure for a first subject for a period of time (a) without levodopa and (b) with a clinically effective dosage regime of levodopa. Also pictured are values of a rigidity index (label) calculated according to the present disclosure. Higher index values correspond to lower perceived wrist rigidity. FIG. 7: angular velocity data of a wrist rigidity assessment recorded using a device according to an embodiment of the present disclosure for a second subject for a period of time (a) without levodopa and (b) with a clinically effective dosage regime of levodopa. Also pictured are values of a rigidity index (label) calculated according to the present disclosure. Higher index values correspond to lower perceived wrist rigidity. Levodopa is an amino acid precursor of dopamine with antiparkinsonian properties. Levodopa is a prodrug that is converted to dopamine by DOPA decarboxylase and can cross the blood-brain barrier. Two patients (person and person) were subjected to a Levodopa level medication test where an experienced neurologist evaluates the subjective Unified PD Rating Scale (UPDRS) motor semi-quantitative classification for Rigidity & Rest Tremor (0 to 4) for a baseline (no levodopa) and in steps of increasing levodopa dosages until a UPDRS of 0 is achieved. This is the dosage as prescribed to the patient. At this dosage, wrist rigidity was evaluated as presently disclosed. As described above, higher index values correspond to lower perceived wrist rigidities. See also FIG. 6-7. A threshold of a rigidity measure according to the present disclosure, for example of 70% or 80%, can thus be used to objectively identify a clinically effective dosage regime. Furthermore, a threshold of a rigidity measure according to the present disclosure can also be used to identify a clinically effective dosage regime which also minimizes the risk of side effects.

`N[C@@H](Cc1ccc(O)c(O)c1)C(=O)O` [Levodopa] was tested, and the UPDRS (Subject 1, with clinically effective dosage of levodopa, baseline without levodopa 3) was 0, the “Rigidity label (Avg)” value (Subject 1, with levodopa, baseline without levodopa 46.9) was 74.3% and the Rigidity label (Subject 1, with levodopa, baseline without levodopa 40-50) was 70-80%. The UPDRS (Subject 2, with clinically effective dosage of levodopa, baseline without levodopa 2) was 0, the “Rigidity label (Avg)” value (Subject 2, with levodopa, baseline without levodopa 48.6) was 84.9% and the Rigidity label (Subject 2, with levodopa, baseline without levodopa 50) was 80-90%.
